Earlier results on two compounds are cited in patent US20060099230A1, “Novel formulations of eprosartan with enhanced bioavailability” (priority 2004, published 2006).

For the data set the following is noted: for bioavailability (mean absolute / oral): conventional formulation, dose not stated.

SMILES strings stand for the structures. Structures can show the parent of a compound that is named as a salt.

As to `CCCCc1ncc(/C=C(\Cc2cccs2)C(=O)O)n1Cc1ccc(C(=O)O)cc1` [eprosartan, (E)-α-[2-n-butyl-1-[(4-carboxyphenyl)methyl]-1H-imidazol-5-yl]methylene-2-thiophenepropionic acid], the “bioavailability (mean absolute / oral)” value was 13%. Also, the “effect of food on absorption” value (administered with food) is given as “delays absorption”. For the same compound, where the note is “chronic use”, the accumulation result is on record as “does not significantly accumulate”. For the same compound, under “following a 300 mg oral dose”, the absolute bioavailability result is listed as “approximately 13%”. For the setting “over the 100 mg to 800 mg dose range”, the “dose proportionality of plasma concentrations” value is reported as “slightly less than dose-proportional”.

In the case of `CCCCc1ncc(/C=C(\Cc2cccs2)C(=O)O)n1Cc1ccc(C(=O)O)cc1` [eprosartan mesylate], the “bioavailability (mean absolute / oral)” value is 13%.
